The structures appear in SMILES notation. pIC50: −log10 of the molar value. The source made the active and inactive calls. No cut-off for these calls is given here.

For one assay, the target named is Tubulin. The assay can be described thus: Inhibition of tubulin (unknown origin) polymerization after 1 hr by ELISA plate reader analysis. Type of assay: protein-complex assay, Homo sapiens.
The subject of assay [1] is PC-3. The assay can be described thus: Cytotoxicity against human PC3 cells assessed as growth inhibition after 48 hrs by sulforhodamine B assay. Type of assay: functional, cell-based. Conditions: PC-3, 48 h. (In general: In SRB staining, fixed cells bind dye roughly in proportion to their protein.)
The subject of assay [2] is HCT-116. Briefly: Cytotoxicity against human HCT116 cells assessed as growth inhibition after 48 hrs by sulforhodamine B assay. Type of assay: functional, cell-based. The conditions noted are these: HCT-116, 48 h.
In assay [3] the test system is COLO 205. Briefly: Cytotoxicity against human COLO205 cells assessed as growth inhibition after 48 hrs by sulforhodamine B assay. Type of assay: functional, cell-based. Conditions: COLO 205, 48 h.
Assay [4] relates to THP-1. The assay can be described thus: Cytotoxicity against human THP1 cells assessed as growth inhibition after 48 hrs by sulforhodamine B assay. Type of assay: functional, cell-based. The conditions noted are these: THP-1, 48 h.
The nature of assay [5]: Cytotoxicity against human MIAPaCa2 cells assessed as growth inhibition at 50 uM after 48 hrs by sulforhodamine B assay relative to control. Type of assay: functional. Conditions: MIA PaCa-2, 48 h, read-out: GI.
Assay [6] has as its system PC-3. Briefly: Cytotoxicity against human PC3 cells assessed as growth inhibition at 50 uM after 48 hrs by sulforhodamine B assay relative to control. Type of assay: functional. The conditions noted are these: PC-3, 48 h, read-out: GI.
For the next assay, the system named is CAKI-1. The assay can be described thus: Cytotoxicity against human Caki1 cells assessed as growth inhibition at 50 uM after 48 hrs by sulforhodamine B assay relative to control. Type of assay: functional. The conditions noted are these: CAKI-1, 48 h, read-out: GI.
In a further assay the test system is HeLa. The assay can be described thus: Cytotoxicity against human HeLa cells assessed as growth inhibition at 50 uM after 48 hrs by sulforhodamine B assay relative to control. Type of assay: functional. Conditions: read-out: GI.
In the next assay the test system is A549. The assay can be described thus: Cytotoxicity against human A549 cells assessed as growth inhibition at 50 uM after 48 hrs by sulforhodamine B assay relative to control. Type of assay: functional. Conditions: A549, 48 h, read-out: GI.
Assay [7] has as its system HCT-116. The assay can be described thus: Cytotoxicity against human HCT116 cells assessed as growth inhibition at 50 uM after 48 hrs by sulforhodamine B assay relative to control. Conditions: HCT-116, 48 h, read-out: GI. Type of assay: functional.
Assay [8] has as its system COLO 205. Briefly: Cytotoxicity against human COLO205 cells assessed as growth inhibition at 50 uM after 48 hrs by sulforhodamine B assay relative to control. Type of assay: functional. The conditions noted are these: COLO 205, 48 h, read-out: GI.
Assay [9] concerns THP-1. Briefly: Cytotoxicity against human THP1 cells assessed as growth inhibition at 50 uM after 48 hrs by sulforhodamine B assay relative to control. Type of assay: functional. The conditions noted are these: THP-1, 48 h, read-out: GI.
Assay [10] relates to HCT-116. Briefly: Disruption of microtubule organization in human HCT116 cells at 5 uM after 48 hrs by DAPI staining-based laser scanning confocal microscopic analysis. Type of assay: cell-based.

Broadly, the pIC50 is the negative decadic logarithm of the IC50, by convention in mol/L. For the compound `COc1cc(/C=C/C(=O)/C=C/c2cccc3ccccc23)ccc1OCc1cn(CCN2C(=O)C(=O)c3ccccc32)nn1`, the pIC50 against Tubulin is 5.15; in the assay on PC-3 [1], 5.07; in the assay on HCT-116 [2], 5.32; with COLO 205 [3], 5.10; in the assay on THP-1 [4], 5.21. Besides, the inhibition of growth at 50 µM came out at 11% in assay [5]; 77% in the assay with PC-3 [6]; 14% in the assay with CAKI-1; 10% in the assay with HeLa; 10% in the assay with A549; 89% in the assay on HCT-116 [7]. The inhibition of growth at 50 µM in the assay with COLO 205 [8] came out at 80%; with THP-1 [9], 83%.
Consider `COc1ccc(/C=C/C(=O)/C=C/c2ccc(OCc3cn(CCN4C(=O)C(=O)c5ccccc54)nn3)c(OC)c2)cc1`, for which the pIC50 is 5.27 against Tubulin; 5.05 in the assay with PC-3 [1]; 5.46 in the assay with HCT-116 [2]; 5.17 with COLO 205 [3]; 5.30 with THP-1 [4]. For the same compound, the inhibition of growth at 50 µM in assay [5] was 17%; in the assay with PC-3 [6], 70%; in the assay on CAKI-1, 20%; with HeLa, 15%; in the assay on A549, 15%; in the assay with HCT-116 [7], 81%. The inhibition of growth at 50 µM was determined as 72% in the assay with COLO 205 [8] and 75% in the assay with THP-1 [9].
As for `COc1cc(/C=C/C(=O)/C=C/c2cc(OC)c(OC)c(OC)c2)ccc1OCc1cn(CCN2C(=O)C(=O)c3ccccc32)nn1`, the result in the assay on HCT-116 [10] was Active. The pIC50 against Tubulin is 5.63; with PC-3 [1], 5.25; in the assay with HCT-116 [2], 5.95; with COLO 205 [3], 5.38; in the assay with THP-1 [4], 5.54. The inhibition of growth at 50 µM in assay [5] is 25%; in the assay with PC-3 [6], 85%; in the assay with CAKI-1, 25%; in the assay with HeLa it was 20%; in the assay on A549, 22%; in the assay with HCT-116 [7], 99%. For the same compound, the inhibition of growth at 50 µM in the assay with COLO 205 [8] was found to be 86%; in the assay on THP-1 [9] it was 89%.
For `COc1ccccc1/C=C/C(=O)/C=C/c1ccc(OCc2cn(CCN3C(=O)C(=O)c4ccccc43)nn2)c(OC)c1`, the pIC50 in the assay on PC-3 [1] was 5.05; in the assay on HCT-116 [2] it was 5.34; with COLO 205 [3] it was 5.09; in the assay with THP-1 [4] it was 5.20. Besides, the inhibition of growth at 50 µM is 13% in assay [5]; 64% with PC-3 [6]; 15% with CAKI-1; 12% with HeLa; 11% in the assay on A549; 75% in the assay with HCT-116 [7]. Further, the inhibition of growth at 50 µM with COLO 205 [8] was 67%; in the assay on THP-1 [9], 70%.
With `COc1cccc(/C=C/C(=O)/C=C/c2ccc(OCc3cn(CCN4C(=O)C(=O)c5ccccc54)nn3)c(OC)c2)c1`, the pIC50 in the assay with PC-3 [1] was 5.04; with HCT-116 [2], 5.41; in the assay with COLO 205 [3] it was 5.13; with THP-1 [4] it was 5.36. Besides, the inhibition of growth at 50 µM was 15% in [5]; 66% in the assay on PC-3 [6]; 17% in the assay with CAKI-1; 14% in the assay with HeLa; 13% in the assay with A549; 77% with HCT-116 [7]. In addition, the inhibition of growth at 50 µM in the assay with COLO 205 [8] is 69%; in the assay with THP-1 [9], 70%.
With `COc1cc(/C=C/C(=O)/C=C/c2ccccc2)ccc1OCc1cn(CCN2C(=O)C(=O)c3ccccc32)nn1`, the pIC50 in the assay with PC-3 [1] was 5.02; in the assay on HCT-116 [2], 5.29; with COLO 205 [3] it was 5.08; with THP-1 [4] it was 5.12. Moreover, the inhibition of growth at 50 µM in assay [5] stood at 20%; with PC-3 [6], 60%; in the assay with CAKI-1, 15%; with HeLa, 12%; with A549, 10%; with HCT-116 [7] it was 71%. Also, the values for the inhibition of growth at 50 µM in the assay with COLO 205 [8] and in the assay on THP-1 [9] were 64% and 66%, respectively.
For `COc1ccc(/C=C/C(=O)/C=C/c2ccc(OCc3cn(CCN4C(=O)C(=O)c5ccccc54)nn3)c(OC)c2)cc1OC`, the pIC50 on Tubulin was 5.40; with PC-3 [1], 5.12; with HCT-116 [2] it was 5.57; in the assay with COLO 205 [3], 5.24; in the assay on THP-1 [4], 5.37. The inhibition of growth at 50 µM in assay [5] came to 21%; with PC-3 [6], 79%; in the assay with CAKI-1, 22%; in the assay on HeLa, 18%; in the assay on A549 it was 19%; in the assay with HCT-116 [7], 90%. In addition, the inhibition of growth at 50 µM with COLO 205 [8] was found to be 80%; in the assay with THP-1 [9] it was 82%.

The record behind these values is ChEMBL document CHEMBL3627713, “Triazole linked mono carbonyl curcumin-isatin bifunctional hybrids as novel anti tubulin agents: Design, synthesis, biological evaluation and molecular modeling studies” (Bioorg Med Chem, 2015).
